Converted amounts (≈) assume the structure as drawn. Where two headings read alike, the source gives them in different places.
Tests used:
rats = assay: Penile erection test using rats; assay type: in vivo, rat; conditions: oral single dose 10 mg/kg in 0.5% methyl cellulose, observed for 2 hours
[1] = biological target: T1, Phosphodiesterase-5 enzyme (PDE 5) (Homo sapiens, UniProt O76074); assay: Test for phosphodiesterase-5 (PDE 5) activity; assay type: biochemical; conditions: PDE 5 fraction from human corpus cavernosal tissues
T1 construct: separated by HPLC (Mono Q anion exchange column) with concentration gradient of 0-500 mM NaCl to elute PDE isozymes; from tissue; host or cells: human corpus cavernosal tissue

[2] = biological target: T2, Phosphodiesterase-3 enzyme (PDE 3) (Oryctolagus cuniculus, UniProt G1ST54); assay: Test for phosphodiesterase-3 (PDE 3) activity; assay type: biochemical; conditions: PDE 3 fraction from platelets of a rabbit
T2 construct: The supernatant was separated by DEAE-cellulose column chromatography (Whatman DE52 bead); from tissue; host or cells: rabbit platelets
T2 sequence (G1ST54 1-1128): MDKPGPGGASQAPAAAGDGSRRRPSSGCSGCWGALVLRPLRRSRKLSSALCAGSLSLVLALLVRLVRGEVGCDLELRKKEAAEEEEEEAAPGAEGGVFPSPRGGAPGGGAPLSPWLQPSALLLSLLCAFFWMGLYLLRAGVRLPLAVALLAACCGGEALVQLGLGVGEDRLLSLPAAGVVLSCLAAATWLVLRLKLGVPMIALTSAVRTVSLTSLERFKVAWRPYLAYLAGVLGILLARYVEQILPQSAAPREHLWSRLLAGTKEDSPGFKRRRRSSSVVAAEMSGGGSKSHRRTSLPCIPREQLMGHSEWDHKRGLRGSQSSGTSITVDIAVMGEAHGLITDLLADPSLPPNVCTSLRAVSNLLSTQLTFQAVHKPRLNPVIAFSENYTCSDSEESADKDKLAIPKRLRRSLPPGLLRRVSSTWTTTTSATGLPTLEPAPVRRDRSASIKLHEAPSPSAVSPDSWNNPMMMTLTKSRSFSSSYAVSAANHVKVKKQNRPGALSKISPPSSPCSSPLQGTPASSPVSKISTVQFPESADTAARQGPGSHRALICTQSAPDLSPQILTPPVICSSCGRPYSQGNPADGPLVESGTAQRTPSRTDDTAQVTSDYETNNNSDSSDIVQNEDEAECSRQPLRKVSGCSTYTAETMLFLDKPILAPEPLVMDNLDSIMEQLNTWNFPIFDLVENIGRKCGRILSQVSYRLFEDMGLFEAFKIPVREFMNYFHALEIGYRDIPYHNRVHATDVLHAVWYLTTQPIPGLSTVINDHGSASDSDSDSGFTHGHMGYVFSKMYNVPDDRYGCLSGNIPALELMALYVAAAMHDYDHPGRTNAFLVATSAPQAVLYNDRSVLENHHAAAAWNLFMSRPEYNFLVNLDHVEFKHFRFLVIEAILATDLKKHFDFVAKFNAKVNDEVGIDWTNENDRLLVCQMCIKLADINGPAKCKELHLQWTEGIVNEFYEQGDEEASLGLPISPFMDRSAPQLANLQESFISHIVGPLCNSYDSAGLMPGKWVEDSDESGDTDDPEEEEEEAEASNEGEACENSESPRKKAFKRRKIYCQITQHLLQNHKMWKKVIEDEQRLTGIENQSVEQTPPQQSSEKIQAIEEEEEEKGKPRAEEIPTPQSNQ
Protocol: Phosphodiesterase-3 enzyme (PDE 3) was separated from platelets of a rabbit. About 60 ml of blood was collected from a puncture of the abdominal artery of a rabbit in heparinized syringes. Platelet-rich plasma was harvested by centrifugation for 5 min at 450×g and further centrifuged for 15 min at 1,200×g to precipitate the platelets. The platelets were resuspended in homogenizing buffer (50 mM Tris-HCl, 1 mM MgCl2, pH 7.4), homogenized at 4° C. and ultrasonicated (30 sec/ml). The homogenized solution was centrifuged (105,000×g) for 1 hr at 4° C. to obtain the supernatant in which PDE was dissolved. The supernatant was separated by DEAE-cellulose column chromatography (Whatman DE52 bead) by using eluent (50 mM Tris-HCl, 3.75mM2-mercaptoethanol, pH 6.0) with concentration gradient of 0-1 M sodium acetate to elute PDE isozymes. The PDE activity was measured on the each column fraction by the following process to separate PDE 3 fraction and the inhibition for PDE 3 of the compounds of formula 1 was measured by using the fraction.
To 1.5 ml tube containing 100 ul of reaction mixture (15 mM Tris-HCl, 5 mM MgCl2, 0.5 mg/ml BSA, pH 7.4) were added appropriate amount of PDE 3 fraction and PDE inhibitor and the solution was mixed well. After [^3H]-cAMP or [^3H]-cGMP (500 nM, 2 uCi/ml) was added, the mixture was reacted in incubator of 30° C. for about 1 hour and the reaction was quenched by putting the tube into boiling water for about 45 seconds to 2 min. The tube was chilled in ice bath for about 5 min. To this tube was added snake venom (1 mg/ml, 100 ul) or 5′-nucleotidase (0.1 unit/tube) and the mixture was reacted in incubator of 37° C. for 10 min and chilled in ice bath. 3 times volume of methanol to the resin was added to the anion exchange resin (Bio-Rad resin, AG1-X2, 200-400 mesh) which had been already washed with 0.5 N HCl, H2O, 0.5 N NaOH, H2O, 0.5 N HCl and H2O in order and adjusted to pH 5. Then 1 ml of the pretreated resin was added to the each tube with vortexing. The mixture was left at 4° C. for 15 min with occasional vortexing and centrifuged (10,000 rpm) for about 5 min to sediment the resin. The supernatant (700 ul) was transferred to a liquid scintillation vial, and mixed with 10 ml of scintillation cocktail. After stabilizing the mixture by leaving it overnight, the radioactivity of the tube was measured by β-counter.

[3] = Acute oral toxicity test in rats; conditions: SD, rat, in vivo, 1 g/kg; rats, oral single dose; read-out: lethal dose (LD50) of oral administration
[4] = Solubility in buffer solution in pH=2&5; assay type: physicochemical; conditions: 20 °C, thermodynamic from solid
Protocol: According to that defined in the Korea Pharmacopoeia, citrate-HCl buffer (pH 2) and citrate-NaOH buffer (pH 5) solutions were added to the powdered compounds of formula 1, respectively. After subsequent severe shaking for 30 sec every 5 min in […] for 30 min, the level of compounds in the filtrate was measured by high performance liquid chromatography.

[5] = Metabolism in rat liver (9,000xg supernatant fraction with NADPH); assay type: in vitro ADME; conditions: 10 ug/ml, 37° C., 1 hr, rat liver 9,000xg supernatant with NADPH generating solution
Protocol: In order to evaluate the extent of metabolism of the compounds of formula 1, the metabolism in rat liver was studied as below similar to the reported method (C. L. Litterist, E. G. Mimnaugh, R. I. Reagan and T. G. Gram., Drug. Metabol. Disposit., 1975, 3, 259-265). In short, the disappearance of compounds after incubation in 9, 000×g supernatant fraction of rat liver homogenate in the presence of NADPH (reduced nicotinamide adenine dinucleotide phosphate) was evaluated.
First, Sprague-Dawley rat (Korea Experiment Animals, SPF) liver was isolated after perfusion through portal vein with 0.1 M phosphate buffer of pH 7.0 using tissue homogenizer at 4° C. After centrifugation at 9,000×g for 20 min, the supernatants were collected.
The compound stock solution was spiked (10 ug/ml) into each of the eppendorf tubes containing 1 ml of the mixed solution composing 1 volume of supernatants and 2 volumes of generating solution. The generating solution contains 1 mM NADP, 10 mM glucose-6-phosphate, 50 mM nicotinamide and 5 MM MgCl2 in 0.1 M phosphate buffer of pH 7.0. After vortex-mixing, each test tube was incubated in a water bath kept at 37° C. After 1 hr, was added acetonitrile to the reaction mixture and centrifuged. 100 ul of aliquot of the supernatant was sampled from each test tube for measuring the remnants by high performance liquid chromatography.

[6] = citrate-HCl buffer, pH 2, aqueous buffer, citrate-HCl buffer (pH 2), read-out: solubility pH 2
[7] = citrate-NaOH buffer, pH 5, aqueous buffer, citrate-NaOH buffer (pH 5), read-out: solubility pH 5

For CCCOc1ccc(S(=O)(=O)Nc2ccncc2)cc1-c1nc2c(CCC)nn(C)c2c(=O)[nH]1 [Example 35, 5-[2-propyloxy-5-(4-pyridylamidosulfonyl)phenyl]-1-methyl-3-propyl-1,6-dihydro-7H-pyrazolo(4,3-d)pyrimidin-7-one], the “PEI (penile erection index)” value (rats) was 200.0 ± 0.0, the “genital grooming (number of genital groomings)” value (from here on “genital grooming”) (rats) was 2.0 ± 0.0 and the IC50 [1] was 0.935 nM. For the same molecule, the IC50 [2] was greater than 207000 nM, the LD50 [3] was greater than 1000 mg/kg and the solubility at 30 min [4, 6] was 11 µg/mL (≈ 22.8 µM). The solubility at 30 min [4, 7] was 1 µg/mL (≈ 2.07 µM) and the “remnants (%)” value [5] was 90.6%.
For CCOc1ccc(S(=O)(=O)Nc2ccncc2)cc1-c1nc2c(CC(C)C)nn(C)c2c(=O)[nH]1 [Example 37, 5-[2-ethoxy-5-(4-pyridylamidosulfonyl)phenyl]-1-methyl-3-isobutyl-1,6-dihydro-7H-pyrazolo(4,3-d)pyrimidin-7-one], the “PEI (penile erection index)” value (rats) was 166.7 ± 57.7, the “genital grooming” value (rats) was 1.3 ± 0.6 and the IC50 [1] was 0.897 nM. For the same molecule, the LD50 [3] was greater than 1000 mg/kg, the solubility at 30 min [4, 6] was 99 µg/mL (≈ 205 µM) and the solubility at 30 min [4, 7] was 7 µg/mL (≈ 14.5 µM). For the same molecule, the “remnants (%)” value [5] was 94.8%.
With CCCOc1ccc(S(=O)(=O)NCc2ccncc2)cc1-c1nc2c(CCC)nn(C)c2c(=O)[nH]1 [Example 44, 5-[2-propyloxy-5-(4-pyridylmethylamidosulfonyl)phenyl]-1-methyl-3-propyl-1,6-dihydro-7H-pyrazolo(4,3-d)pyrimidin-7-one] the “PEI (penile erection index)” value (rats) was 166.7 ± 115.5, the “genital grooming” value (rats) was 1.3 ± 0.6 and the IC50 [1] was 0.328 nM. It also gave an IC50 [2] of 12600 nM, an LD50 [3] greater than 1000 mg/kg and a solubility at 30 min [4, 6] of 373 µg/mL (≈ 751 µM). For the same molecule, the solubility at 30 min [4, 7] was 1 µg/mL (≈ 2.01 µM) and the “remnants (%)” value [5] was 49.8%.
For CCCc1nn(C)c2c(=O)[nH]c(-c3cc(S(=O)(=O)NCc4cccnc4)ccc3OCC)nc12 [Example 47, 5-[2-ethoxy-5-(3-pyridylmethylamidosulfonyl)phenyl]-1-methyl-3-propyl-1,6-dihydro-7H-pyrazolo(4,3-d)pyrimidin-7-one], the “PEI (penile erection index)” value (rats) was 200.0 ± 100.0, the “genital grooming” value (rats) was 3.0 ± 1.0 and the IC50 [1] was 2.78 nM. It also gave an IC50 [2] of 20900 nM and an LD50 [3] greater than 1000 mg/kg.
For CCCOc1ccc(S(=O)(=O)NCc2ccccn2)cc1-c1nc2c(CCC)nn(C)c2c(=O)[nH]1 [Example 52, 5-[2-propyloxy-5-(2-pyridylmethylamidosulfonyl)phenyl]-1-methyl-3-propyl-1,6-dihydro-7H-pyrazolo(4,3-d)pyrimidin-7-one], the “PEI (penile erection index)” value (rats) was 233.3 ± 57.7, the “genital grooming” value (rats) was 3.0 ± 1.0 and the IC50 [1] was 9.89 nM. The IC50 [2] was greater than 201000 nM and the LD50 [3] was greater than 1000 mg/kg.
For CCCOc1ccc(S(=O)(=O)NC2CCN(C)C2)cc1-c1nc2c(CCC)nn(C)c2c(=O)[nH]1 (centres unmarked) [Example 53, 5-[2-propyloxy-5-(1-methyl-3-pyrrolidinylamidosulfonyl)phenyl]-1-methyl-3-propyl-1,6-dihydro-7H-pyrazolo(4,3-d)pyrimidin-7-one], the “PEI (penile erection index)” value (rats) was 300.0 ± 200.0, the “genital grooming” value (rats) was 2.7 ± 2.1 and the IC50 [1] was 20.9 nM. For the same molecule, the IC50 [2] was greater than 205000 nM and the LD50 [3] was greater than 1000 mg/kg.
For CCOc1ccc(S(=O)(=O)NC2CCN(C)C2)cc1-c1nc2c(CC(C)C)nn(C)c2c(=O)[nH]1 (centres unmarked) [Example 54, 5-[2-ethoxy-5-(1-methyl-3-pyrrolidinylamidosulfonyl)phenyl]-1-methyl-3-isobutyl-1,6-dihydro-7H-pyrazolo(4,3-d)pyrimidin-7-one], the “PEI (penile erection index)” value (rats) was 233.3 ± 230.9, the “genital grooming” value (rats) was 2.7 ± 2.9 and the IC50 [1] was 39.1 nM. It also gave an IC50 [2] greater than 205000 nM and an LD50 [3] greater than 1000 mg/kg.
With CCCOc1ccc(S(=O)(=O)NCC2CCN(CC)C2)cc1-c1nc2c(CCC)nn(C)c2c(=O)[nH]1 (centres unmarked) [Example 64, 5-[2-propyloxy-5-(1-ethyl-3-pyrrolidinylmethylamidosulfonyl)phenyl]-1-methyl-3-propyl-1,6-dihydro-7H-pyrazolo(4,3-d)pyrimidin-7-one] the “PEI (penile erection index)” value (rats) was 175.0 ± 95.7, the “genital grooming” value (rats) was 2.8 ± 0.5 and the IC50 [1] was 30.7 nM. It also gave an IC50 [2] of 134000 nM and an LD50 [3] greater than 1000 mg/kg.
In the case of CCOc1ccc(S(=O)(=O)NCC2CCN(CC)C2)cc1-c1nc2c(CC(C)C)nn(C)c2c(=O)[nH]1 (centres unmarked) [Example 66, 5-[2-ethoxy-5-(1-ethyl-3-pyrrolidinylmethylamidosulfonyl)phenyl]-1-methyl-3-isobutyl-1,6-dihydro-7H-pyrazolo(4,3-d)pyrimidin-7-one], the “PEI (penile erection index)” value (rats) is reported as 175.0 ± 95.7, the “genital grooming” value (rats) is reported as 2.8 ± 0.5 and the IC50 [1] is reported as 35.8 nM. It also gave an IC50 [2] of 90400 nM and an LD50 [3] greater than 1000 mg/kg.

From US6583147B1, “Pyrazolopyrimidinone derivatives for the treatment of impotence” (Dong A Pharm Co., Ltd., priority 1998, dated 2003)
